This is an account of results in patent US20260193293A1, “PEPTIDES CAPABLE OF INHIBITING PROTEIN-PROTEIN INTERACTIONS AT GABAB1A SUBUNIT AND USES THEREOF” (UNIVERSITY OF COPENHAGEN, priority 2022, published 2026).

This test concerns the target Sushi domains (SD1/2) protein. Nature of the test: Fluorescence polarization (FP) competition assay with AJAP-1probe, calculated Ki. Type of test: binding. The method, boiled down: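 Ki values were derived from IC50s (sigmoidal fits, ≥ triplicate), with probe Kd obtained by saturation titration of SD1/2. Peptides displaced a 25 nM TAMRA-labelled probe; polarization read at 530/580 nm in 1% BSA-containing PBS, pH 7.4, room temperature.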

The mark [1] stands for this setting: Table 4, truncation and elongation scans of APP epitope, read-out: Ki (nM) mean ± SEM.
[2] abbreviates: Table 10, deep mutational scanning validation variants of APPWT, read-out: Ki (nM) mean ± SEM.
[3] abbreviates: Table 11, deep mutational scanning validation variants of AJAP-1WT, read-out: Ki (nM) mean ± SEM.
[4] abbreviates: Table 13, peptides for affinity maturation, read-out: Ki (nM) mean ± SEM.
The mark [5] stands for this setting: Table 5, elongation and truncation scan of AJAP-1 binding epitope, read-out: Ki (nM) mean ± SEM.
The mark [6] stands for this setting: Table 7, Ala-, D-amino acids and N-methylation scans of APPWT, read-out: Ki (nM) mean ± SEM.

Where two headings read alike, the source gives them in different places. Non-standard residues stand in square brackets, D forms with d. Residues, ends and D or L forms follow the SMILES beside them. NMeS = CN[C@@H](CO)C(=O)O; NMeA = CN[C@@H](C)C(=O)O; Sar = CNCC(=O)O

For the molecule `CC(=O)N[C@@H](CC(=O)O)C(=O)N[C@@H](CO)C(=O)N[C@@H](C)C(=O)N[C@@H](CC(=O)O)C(=O)N[C@@H](C)C(=O)N[C@@H](CCC(=O)O)C(=O)N[C@@H](CCC(=O)O)C(=O)N[C@@H](CC(=O)O)C(=O)N[C@@H](CC(=O)O)C(=O)N[C@@H](CO)C(=O)N[C@@H](CC(=O)O)C(=O)N[C@H](C(=O)N[C@@H](Cc1c[nH]c2ccccc12)C(=O)N[C@@H](Cc1c[nH]c2ccccc12)C(=O)NCC(=O)NCC(=O)N[C@@H](C)C(=O)N[C@@H](CC(=O)O)C(=O)N[C@H](C(=O)N[C@@H](CC(=O)O)C(=O)N[C@@H](Cc1ccc(O)cc1)C(=O)N[C@@H](C)C(=O)N[C@@H](CC(=O)O)C(N)=O)[C@@H](C)O)C(C)C` (Ac-DSADAEEDDSDVWWGGADTDYAD-NH2), the Ki under setting [1] was 513 ± 17 nM.

With `CC[C@H](C)[C@H](NC(=O)[C@H](C)NC(=O)[C@H](Cc1c[nH]c2ccccc12)NC(=O)[C@@H]1CCCN1C(C)=O)C(=O)N[C@H](C(=O)N[C@@H](Cc1c[nH]c2ccccc12)C(=O)NCC(=O)N1CCC[C@H]1C(=O)N[C@H](C(=O)N[C@H](C(=O)N(C)[C@@H](CO)C(=O)N[C@@H](CCCNC(=N)N)C(=O)N[C@@H](CCC(=O)O)C(=O)N[C@@H](CC(=O)O)C(N)=O)C(C)C)[C@@H](C)O)C(C)C` (Ac-PWAIVWGPTV[NMeS]RED-NH2), the Ki (Table 9, Ala-, D-amino acids and N-methylation scans of PIANPWT, read-out: Ki (nM) mean ± SEM) was 1045 ± 1 nM.

On to `CC(=O)N[C@@H](CCCCN)C(=O)N[C@@H](CC(=O)O)C(=O)N[C@@H](CC(=O)O)C(=O)N[C@@H](CO)C(=O)N[C@@H](CC(=O)O)C(=O)N[C@H](C(=O)N[C@@H](Cc1c[nH]c2ccccc12)C(=O)N[C@@H](Cc1c[nH]c2ccccc12)C(=O)NCC(=O)NCC(=O)N[C@@H](C)C(=O)N[C@@H](CC(=O)O)C(=O)N[C@H](C(=O)N[C@@H](CC(=O)O)C(N)=O)[C@@H](C)O)C(C)C` (Ac-KDDSDVWWGGADTD-NH2), for which the Ki under setting [2] was 1520 ± 53 nM.

As to `COc1ccc(C[C@H](NC(=O)[C@H](CO)NC(=O)[C@H](CC(=O)O)NC(=O)[C@H](CC(=O)O)NC(=O)[C@H](CCC(=O)O)NC(C)=O)C(=O)N[C@H](C(=O)N[C@@H](Cc2c[nH]c3ccccc23)C(=O)N[C@@H](Cc2c[nH]c3ccccc23)C(=O)NCC(=O)NCC(=O)N[C@@H](C)C(=O)N[C@@H](CC(=O)O)C(=O)N[C@H](C(=O)N[C@@H](CC(=O)O)C(N)=O)[C@@H](C)O)C(C)C)cc1` (Ac-EDDSY(Me)VWWGGADTD-NH2), the Ki (Table 16, ncAAs incorporated peptides, read-out: Ki (nM) mean ± SEM) was 101 ± 4 nM.

For the molecule `CC[C@H](C)[C@H](NC(=O)[C@H](Cc1ccccc1)NC(=O)[C@H](CCC(=O)O)NC(=O)[C@@H](NC(=O)[C@H](CCC(=O)O)NC(C)=O)[C@@H](C)O)C(=O)N[C@@H](C)C(=O)N[C@@H](Cc1c[nH]c2ccccc12)C(=O)NCC(=O)N1CCC[C@H]1C(=O)N[C@H](C(=O)NCC(=O)N[C@@H](CC(=O)O)C(=O)N[C@@H](CCC(=O)O)C(=O)N[C@H](C(N)=O)C(C)C)[C@@H](C)O` (Ac-ETEFIAWGPTGDEV-NH2), under setting [3], the Ki was 40 ± 2 nM.

Take `CC(=O)N[C@@H](CCC(=O)O)C(=O)N[C@@H](CC(=O)O)C(=O)N[C@@H](CC(=O)O)C(=O)N[C@@H](CO)C(=O)N[C@@H](CC(=O)O)C(=O)N[C@H](C(=O)N[C@@H](Cc1c[nH]c2ccccc12)C(=O)N[C@@H](Cc1c[nH]c2ccccc12)C(=O)NCC(=O)N1CCC[C@H]1C(=O)N[C@H](C(=O)NCC(=O)N[C@@H](CC(=O)O)C(=O)N[C@@H](CCC(=O)O)C(=O)N[C@@H](CC(=O)O)C(N)=O)[C@@H](C)O)C(C)C` [Peptide X, Ac-EDDSDVWWGPTGDED-NH2] (Ac-EDDSDVWWGPTGDED-NH2): the Ki runs as follows: (Table 1, affinity maturation, mean ± SEM, n ≥ 3, read-out: Ki) 62 ± 1 nM; under setting [4], 62 ± 1 nM. The “fold improved affinity compared to APPWT” value (relative to APPWT) is about 10 fold.

With `CC(=O)N[C@@H](Cc1c[nH]c2ccccc12)C(=O)N[C@@H](Cc1c[nH]c2ccccc12)C(=O)NCC(=O)NCC(=O)N[C@@H](C)C(=O)N[C@@H](CC(=O)O)C(=O)N[C@H](C(=O)N[C@@H](CC(=O)O)C(=O)N[C@@H](Cc1ccc(O)cc1)C(=O)N[C@@H](C)C(=O)N[C@@H](CC(=O)O)C(N)=O)[C@@H](C)O` (Ac-WWGGADTDYAD-NH2), the Ki under setting [1] is over 62500 nM.

As for `CC(=O)N[C@@H](CCC(=O)O)C(=O)N[C@@H](CCC(=O)O)C(=O)N[C@@H](CC(=O)O)C(=O)N[C@@H](CC(=O)O)C(=O)N[C@@H](CO)C(=O)N[C@@H](CC(=O)O)C(=O)N[C@H](C(=O)N[C@@H](Cc1c[nH]c2ccccc12)C(=O)N[C@@H](Cc1c[nH]c2ccccc12)C(=O)NCC(=O)NCC(=O)N[C@@H](C)C(=O)N[C@@H](CC(=O)O)C(N)=O)C(C)C` (Ac-EEDDSDVWWGGAD-NH2), the Ki under setting [1] is 534 ± 13 nM.

For `CC[C@H](C)[C@H](NC(=O)[C@H](Cc1ccc(O)cc1)NC(=O)[C@H](Cc1c[nH]c2ccccc12)NC(=O)[C@@H]1CCCN1C(C)=O)C(=O)N[C@H](C(=O)N[C@@H](Cc1c[nH]c2ccccc12)C(=O)NCC(=O)N1CCC[C@H]1C(=O)N[C@H](C(=O)N[C@H](C(=O)N[C@@H](CO)C(=O)N[C@@H](CCCNC(=N)N)C(=O)N[C@@H](CCC(=O)O)C(=O)N[C@@H](CC(=O)O)C(N)=O)C(C)C)[C@@H](C)O)C(C)C` [PWYIVWGPTVSRED] (Ac-PWYIVWGPTVSRED-NH2), the Ki (Table 12, deep mutational scanning validation variants of PIANPWT, read-out: Ki (nM) mean ± SEM) is 336 ± 2 nM.

On to `CC(=O)N[C@@H](CCC(=O)O)C(=O)N[C@@H](CC(=O)O)C(=O)N[C@@H](CC(=O)O)C(=O)N[C@@H](CO)C(=O)N[C@@H](CC(=O)O)C(=O)N[C@H](C(=O)N[C@@H](Cc1c[nH]c2ccccc12)C(=O)N[C@@H](Cc1c[nH]c2ccccc12)C(=O)N[C@@H](CC(=O)O)C(=O)NCC(=O)N[C@@H](C)C(=O)N[C@@H](CC(=O)O)C(=O)N[C@H](C(=O)N[C@@H](CC(=O)O)C(N)=O)[C@@H](C)O)C(C)C` (Ac-EDDSDVWWDGADTD-NH2), for which, under setting [2], the Ki was 429 ± 7 nM.

Take `CC[C@H](C)[C@H](NC(=O)[C@H](Cc1ccccc1)NC(=O)[C@H](CCC(=O)O)NC(=O)[C@@H](NC(=O)[C@H](CCC(=O)O)NC(=O)[C@@H](NC(=O)[C@@H](NC(=O)[C@@H]1CCCN1C(C)=O)[C@@H](C)O)[C@@H](C)O)[C@@H](C)O)C(=O)N[C@@H](C)C(=O)N[C@@H](Cc1c[nH]c2ccccc12)C(=O)NCC(=O)N1CCC[C@H]1C(=O)N[C@H](C(=O)NCC(=O)N[C@@H](CC(=O)O)C(=O)N[C@@H](CCC(=O)O)C(=O)N[C@@H](CC(=O)O)C(N)=O)[C@@H](C)O` (Ac-PTTETEFIAWGPTGDED-NH2): the Ki under setting [5] is 30 ± 0.5 nM.

As to `CC(=O)N[C@@H](C)C(=O)N[C@@H](Cc1c[nH]c2ccccc12)C(=O)NCC(=O)N1CCC[C@H]1C(=O)N[C@H](C(=O)NCC(=O)N[C@@H](CC(=O)O)C(=O)N[C@@H](CCC(=O)O)C(=O)N[C@@H](CC(=O)O)C(N)=O)[C@@H](C)O` [AWGPTGDED] (Ac-AWGPTGDED-NH2), the Ki under setting [5] was over 125000 nM.

In the case of `CC(=O)N[C@@H](CCC(=O)O)C(=O)N[C@@H](CC(=O)O)C(=O)N[C@@H](CC(=O)O)C(=O)N[C@@H](CO)C(=O)N[C@@H](CC(=O)O)C(=O)N[C@H](C(=O)N[C@@H](Cc1c[nH]c2ccccc12)C(=O)N[C@@H](Cc1c[nH]c2ccccc12)C(=O)NCC(=O)NCC(=O)N[C@@H](C)C(=O)N[C@@H](CC(=O)O)C(=O)N[C@@H](C)C(=O)N[C@@H](CC(=O)O)C(N)=O)C(C)C` (Ac-EDDSDVWWGGADAD-NH2), under setting [6], the Ki is 480 ± 8 nM.

For the molecule `CC(=O)N[C@@H](CCC(=O)O)C(=O)N[C@@H](CC(=O)O)C(=O)N[C@@H](CC(=O)O)C(=O)N[C@@H](CO)C(=O)N[C@@H](CC(=O)O)C(=O)N[C@H](C(=O)N[C@@H](Cc1c[nH]c2ccccc12)C(=O)N[C@@H](Cc1c[nH]c2ccccc12)C(=O)N[C@@H](Cc1ccc(O)cc1)C(=O)NCC(=O)N(C)CC(=O)N[C@H](C(=O)NCC(=O)N[C@@H](CC(=O)O)C(=O)N[C@@H](CCC(=O)O)C(=O)N[C@@H](CC(=O)O)C(N)=O)[C@@H](C)O)C(C)C` (Ac-EDDSDVWWYG[Sar]TGDED-NH2), the Ki under setting [4] was 138 ± 5 nM.

As to `CC[C@H](C)[C@H](NC(=O)[C@H](Cc1ccccc1)NC(=O)[C@H](CCC(=O)O)NC(=O)[C@@H](NC(=O)[C@H](CC(N)=O)NC(C)=O)[C@@H](C)O)C(=O)N[C@@H](C)C(=O)N[C@@H](Cc1c[nH]c2ccccc12)C(=O)NCC(=O)N1CCC[C@H]1C(=O)N[C@H](C(=O)NCC(=O)N[C@@H](CC(=O)O)C(=O)N[C@@H](CCC(=O)O)C(=O)N[C@@H](CC(=O)O)C(N)=O)[C@@H](C)O` [NTEFIAWGPTGDED] (Ac-NTEFIAWGPTGDED-NH2), the Ki under setting [3] is 62 ± 3 nM.

In the case of `CC(=O)N[C@@H](CCC(=O)O)C(=O)N[C@@H](CC(=O)O)C(=O)N[C@@H](CC(=O)O)C(=O)N[C@@H](CO)C(=O)N[C@@H](CC(=O)O)C(=O)N[C@H](C(=O)N[C@@H](Cc1c[nH]c2ccccc12)C(=O)N[C@@H](Cc1c[nH]c2ccccc12)C(=O)NCC(=O)NCC(=O)N(C)[C@@H](C)C(=O)N[C@@H](CC(=O)O)C(=O)N[C@H](C(=O)N[C@@H](CC(=O)O)C(N)=O)[C@@H](C)O)C(C)C` (Ac-EDDSDVWWGG[NMeA]DTD-NH2), the Ki under setting [6] is 704 ± 11 nM.

Turning to `CC[C@H](C)[C@H](NC(=O)[C@H](Cc1ccccc1)NC(=O)[C@H](CCC(=O)O)NC(=O)[C@@H](NC(=O)[C@H](CCC(=O)O)NC(C)=O)[C@@H](C)O)C(=O)N[C@@H](C)C(=O)N[C@@H](Cc1c[nH]c2ccccc12)C(=O)NCC(=O)N1CCC[C@H]1C(=O)N[C@H](C(=O)NCC(=O)N[C@@H](CC(=O)O)C(=O)N[C@@H](CCC(=O)O)C(=O)N[C@@H](Cc1ccc(O)cc1)C(N)=O)[C@@H](C)O`, the Ki under setting [3] is 39 ± 1 nM.

As for `CC(=O)N[C@@H](CCC(=O)O)C(=O)N[C@H](C(=O)N[C@@H](CCC(=O)O)C(=O)N[C@@H](Cc1ccccc1)C(=O)N[C@@H](C)C(=O)N[C@@H](C)C(=O)N[C@@H](Cc1c[nH]c2ccccc12)C(=O)NCC(=O)N1CCC[C@H]1C(=O)N[C@H](C(=O)NCC(=O)N[C@@H](CC(=O)O)C(=O)N[C@@H](CCC(=O)O)C(=O)N[C@@H](CC(=O)O)C(N)=O)[C@@H](C)O)[C@@H](C)O` [ETEFAAWGPTGDED] (Ac-ETEFAAWGPTGDED-NH2), for the setting “Table 8, in μM, read-out: Ki (nM) mean ± SEM”, the Ki is over 6250 nM.
